Experimental data: ChEMBL document CHEMBL1153162, “Total synthesis and biological evaluation of methylgerambullone” (2010)

Experiments:
Settings in all cases: Cavia porcellus
Ileum [1] = experiment: […] activity in longitudinal smooth muscle of guinea pig ileum assessed as inhibition of acetylcholine-induced contraction at 60 mg/L; format: functional
Ileum [2] = experiment: […] activity in longitudinal smooth muscle of guinea pig ileum assessed as inhibition of acetylcholine-induced contraction at 100 mg/L; format: functional
Ileum [3] = experiment: […] activity in longitudinal smooth muscle of guinea pig ileum assessed as inhibition of acetylcholine-induced contraction at 30 mg/L; format: functional
Ileum [4] = experiment: […] activity in longitudinal smooth muscle of guinea pig ileum assessed as inhibition of acetylcholine-induced contraction; format: functional, tissue-based

Q: Which inhibition at 60 µg/mL (Ileum [1]) does the source give for `CC(C)=CC(=O)C/C(C)=C/COc1ccc(CCN(C)C(=O)/C=C/S(C)(=O)=O)cc1` [METHYLGERAMBULLONE] here?
A: The inhibition at 60 µg/mL was 70%.

Q: What about the inhibition at 100 µg/mL (Ileum [2]) of the same compound?
A: The inhibition at 100 µg/mL was 78.7%.

Q: And the inhibition at 30 µg/mL (Ileum [3])?
A: The inhibition at 30 µg/mL was 45.3%.

Q: And the Activity (Ileum [4])?
A: The Activity was “Dose-dependent effect”.
